In US20050101518A1, “Methods of treating conditions associated with an EDG-2 receptor” (priority 2002, published 2005):
pIC50: −log10 of the molar value.

Tests used:
[1] = tested on: forskolin-stimulated cAMP production; experiment: cAMP assay: LPA inhibition of forskolin-stimulated cAMP production; type: cell-based; conditions: 10 μM compound; FIG. 4
Procedure: Cells were plated in a 96 well format. Treatments were performed directly without any serum starvation. The cells were treated with forskolin to induce cAMP production, followed by LPA or S1P doses in the range from 0.1-10 μM in serum free medium. Following a 30-minute incubation period, the cells were lysed and the level of cAMP was determined.
The cAMP assay was performed using the Tropix cAMP-Screen (Applied BioSystems, Foster City, Calif.). The screen is a competitive immunoassay that utilizes a 96 well assay plate precoated with an anti-cAMP antibody. Cell lysates were added to the precoated plate, along with a cAMP-AP conjugate and a secondary anti-cAMP antibody.
Detection was performed using a substrate solution and chemiluminescent readout. The level of chemiluminescence was inversely proportional to the level of cAMP and was calculated from a standard curve.

[2] = tested on: immortalized ovarian surface epithelial cells; experiment: LPA-stimulated calcium mobilization in immortalized ovarian surface epithelial cells; type: cell-based; conditions: 10 μM compound, FIG. 3
Text: [The procedure below names another cell line; the source lists this cell line under the same test.] (§1) LPA receptors such as Edg-2, couple to calcium effector pathways, and result in increases in intracellular calcium following receptor activation (An, 1998, J. Cell. Biochem. Supp., 30-31: 147-157). This biological response lends itself to a very efficient, high-throughput screen using a Fluorescence Imaging Plate Reader (FLIPR; Molecular Devices, Sunnyvale, Calif.). The FLIPR system is a real-time, cell-based assay system with continuous fluorescence detection using a cooled CCD camera. The FLIPR system was used to developing an Edg-2 receptor screen. Rat hepatoma cells stably expressing Edg-2 receptor were plated on 384-well plates and loaded with a calcium dye loading kit (Molecular Devices, Sunnyvale, Calif.) for 1 hour at room temperature. Cells were then placed on the FLIPR^384 (Molecular Devices, Sunnyvale, Calif.) and excited by an argon laser at 488 nm. The data for the entire 384-well plate was updated every second. An integrated robotic pipettor allowed for simultaneous compound addition into each individual well in the plate.

[3] = tested on: A431 human epitheloid carcinoma cells; experiment: LPA-stimulated calcium mobilization in A431 human epitheloid carcinoma cells; type: cell-based; conditions: for inhibition of LPA-stimulated calcium mobilization: 10 μM compound, FIG. 6
Text: [The procedure below names another cell line; the source lists this cell line under the same test.] as §1

[4] = tested on: various targets tested, including other GPCRs, ion channels, and enzymes; experiment: Pharmacology profiling (selectivity assays) at various non-Edg targets; type: binding
Text: Res. Comm. 181:1365-1371. […] Exp Ther. 268:1122-1127. […] 31:997-1004.

Edg-2 receptor = molecular target: T1, Edg-2 receptor (Homo sapiens, UniProt Q92633); experiment: Intracellular calcium measurement (FLIPR), LPA-stimulated calcium increases in rat hepatoma (HTC) cells stably expressing Edg-2; type: cell-based; conditions: for inhibition of the Edg 2 receptor: FIG. 1 and 2; for pIC50: calcium mobilization, HTC cells expressing Edg 2; for Fold Selective: selectivity for Edg-2 relative to other Edg receptors
T1 construct: expressed in transfected cells
T1 sequence (Q92633 whole entry): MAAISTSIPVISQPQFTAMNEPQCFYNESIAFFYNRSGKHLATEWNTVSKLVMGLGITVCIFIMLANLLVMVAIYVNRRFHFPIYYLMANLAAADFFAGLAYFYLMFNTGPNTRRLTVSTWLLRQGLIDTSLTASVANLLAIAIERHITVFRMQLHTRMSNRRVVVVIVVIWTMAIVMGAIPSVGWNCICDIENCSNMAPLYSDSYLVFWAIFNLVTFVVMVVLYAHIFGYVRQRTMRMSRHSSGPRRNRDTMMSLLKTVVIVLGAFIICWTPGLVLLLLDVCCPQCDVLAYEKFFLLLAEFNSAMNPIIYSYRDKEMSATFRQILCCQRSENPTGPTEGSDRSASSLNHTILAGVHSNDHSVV
Text: as §1

Edg 6 receptor = molecular target: T2, Edg 6 receptor (Homo sapiens, UniProt O95977); experiment: Intracellular calcium measurement (FLIPR), S1P-stimulated calcium increases in HTC cells expressing Edg 6; type: cell-based; conditions: for inhibition of S1P-stimulated calcium increases, Edg 6: FIG. 1 and 2; for pIC50: calcium mobilization
T2 construct: expressed in transfected cells; host or cells: HTC (rat hepatoma) cells
T2 sequence (O95977 1-384): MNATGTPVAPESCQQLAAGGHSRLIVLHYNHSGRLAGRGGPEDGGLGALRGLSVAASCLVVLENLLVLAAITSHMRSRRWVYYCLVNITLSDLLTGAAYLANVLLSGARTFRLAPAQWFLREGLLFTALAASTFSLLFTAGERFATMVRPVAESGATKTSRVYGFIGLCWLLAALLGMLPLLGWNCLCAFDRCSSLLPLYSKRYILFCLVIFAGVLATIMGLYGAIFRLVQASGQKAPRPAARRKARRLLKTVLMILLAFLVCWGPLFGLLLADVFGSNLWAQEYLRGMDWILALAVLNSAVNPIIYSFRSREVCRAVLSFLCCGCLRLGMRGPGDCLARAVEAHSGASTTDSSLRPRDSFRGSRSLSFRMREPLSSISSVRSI

Edg-7 receptor = molecular target: T3, Edg-7 receptor (Homo sapiens, UniProt Q9UBY5); experiment: Intracellular calcium measurement (FLIPR), LPA-stimulated calcium increases in HTC cells expressing Edg-7; type: cell-based; conditions: FIG. 1 and 2
T3 construct: expressed in transfected cells; host or cells: HTC (rat hepatoma) cells
T3 sequence (Q9UBY5 whole entry): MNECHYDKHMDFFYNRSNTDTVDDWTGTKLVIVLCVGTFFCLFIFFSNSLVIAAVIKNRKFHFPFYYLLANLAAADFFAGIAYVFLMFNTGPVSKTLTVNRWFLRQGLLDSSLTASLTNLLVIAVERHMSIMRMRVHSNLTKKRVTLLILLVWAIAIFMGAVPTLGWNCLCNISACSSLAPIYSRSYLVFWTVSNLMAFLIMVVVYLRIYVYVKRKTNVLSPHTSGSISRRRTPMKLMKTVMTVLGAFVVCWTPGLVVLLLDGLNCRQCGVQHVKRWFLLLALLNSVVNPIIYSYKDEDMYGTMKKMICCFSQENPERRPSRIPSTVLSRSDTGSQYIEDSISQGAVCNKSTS

Edg-4 receptor = molecular target: T4, Edg-4 receptor (Homo sapiens, UniProt Q9HBW0); experiment: Intracellular calcium measurement (FLIPR), LPA-stimulated calcium increases in HTC cells expressing Edg-4; type: cell-based; conditions: FIG. 1 and 2
T4 construct: expressed in transfected cells; host or cells: HTC (rat hepatoma) cells
T4 sequence (Q9HBW0 whole entry): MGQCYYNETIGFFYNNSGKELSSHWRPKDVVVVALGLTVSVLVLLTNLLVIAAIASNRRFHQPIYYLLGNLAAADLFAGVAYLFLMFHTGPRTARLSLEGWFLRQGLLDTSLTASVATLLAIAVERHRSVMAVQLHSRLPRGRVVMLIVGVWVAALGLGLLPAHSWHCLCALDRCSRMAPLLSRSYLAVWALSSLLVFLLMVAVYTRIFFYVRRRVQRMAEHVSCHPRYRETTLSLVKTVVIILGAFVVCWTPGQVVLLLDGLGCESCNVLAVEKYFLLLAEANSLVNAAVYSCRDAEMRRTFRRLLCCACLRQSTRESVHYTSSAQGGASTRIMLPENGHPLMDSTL

Edg 1 receptor = molecular target: T5, Edg 1 receptor (Homo sapiens, UniProt P21453); experiment: Intracellular calcium measurement (FLIPR), S1P-stimulated calcium increases in HTC cells expressing Edg 1; type: cell-based; conditions: FIG. 1 and 2
T5 construct: expressed in transfected cells; host or cells: HTC (rat hepatoma) cells
T5 sequence (P21453 whole entry): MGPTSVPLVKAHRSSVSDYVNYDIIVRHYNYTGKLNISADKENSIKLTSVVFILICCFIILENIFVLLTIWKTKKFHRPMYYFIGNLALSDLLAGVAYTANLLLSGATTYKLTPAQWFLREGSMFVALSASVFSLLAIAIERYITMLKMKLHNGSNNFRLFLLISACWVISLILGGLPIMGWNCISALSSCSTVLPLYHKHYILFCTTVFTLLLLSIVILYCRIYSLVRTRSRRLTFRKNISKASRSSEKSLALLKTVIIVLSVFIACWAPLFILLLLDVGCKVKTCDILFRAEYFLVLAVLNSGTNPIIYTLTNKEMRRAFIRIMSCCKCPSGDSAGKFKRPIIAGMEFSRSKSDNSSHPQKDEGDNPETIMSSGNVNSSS

Edg 5 receptor = molecular target: T6, Edg 5 receptor (Homo sapiens, UniProt O95136); experiment: Intracellular calcium measurement (FLIPR), S1P-stimulated calcium increases in HTC cells expressing Edg 5; type: cell-based; conditions: FIG. 1 and 2
T6 construct: expressed in transfected cells; host or cells: HTC (rat hepatoma) cells
T6 sequence (O95136 whole entry): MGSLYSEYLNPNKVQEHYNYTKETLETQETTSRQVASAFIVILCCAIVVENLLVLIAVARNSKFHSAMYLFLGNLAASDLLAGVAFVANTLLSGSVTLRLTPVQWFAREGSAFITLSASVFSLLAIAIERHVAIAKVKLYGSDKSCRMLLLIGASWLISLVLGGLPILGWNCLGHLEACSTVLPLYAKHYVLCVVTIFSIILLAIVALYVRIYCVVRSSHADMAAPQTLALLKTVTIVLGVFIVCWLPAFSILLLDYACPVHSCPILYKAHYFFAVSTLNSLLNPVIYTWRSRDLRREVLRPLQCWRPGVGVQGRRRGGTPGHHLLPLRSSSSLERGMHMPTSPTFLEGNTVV

Edg 8 receptor = molecular target: T7, Edg 8 receptor (Homo sapiens, UniProt Q9H228); experiment: Intracellular calcium measurement (FLIPR), S1P-stimulated calcium increases in HTC cells expressing Edg 8; type: cell-based; conditions: FIG. 1 and 2
T7 construct: expressed in transfected cells; host or cells: HTC (rat hepatoma) cells
T7 sequence (Q9H228 whole entry): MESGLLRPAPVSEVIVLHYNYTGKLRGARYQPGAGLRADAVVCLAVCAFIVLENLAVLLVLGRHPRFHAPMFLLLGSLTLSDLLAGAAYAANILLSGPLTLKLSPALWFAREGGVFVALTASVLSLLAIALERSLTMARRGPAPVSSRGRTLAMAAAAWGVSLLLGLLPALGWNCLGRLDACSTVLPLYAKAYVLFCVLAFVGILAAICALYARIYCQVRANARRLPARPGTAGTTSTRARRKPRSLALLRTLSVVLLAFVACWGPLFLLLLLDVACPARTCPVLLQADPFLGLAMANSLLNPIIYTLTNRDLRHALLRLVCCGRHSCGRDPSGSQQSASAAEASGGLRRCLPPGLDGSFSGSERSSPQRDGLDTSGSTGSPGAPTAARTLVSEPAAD

Edg 3 receptor = molecular target: T8, Edg 3 receptor (Homo sapiens, UniProt Q99500); experiment: Intracellular calcium measurement (FLIPR), S1P-stimulated calcium increases in HTC cells expressing Edg 3; type: cell-based; conditions: FIG. 1 and 2
T8 construct: expressed in transfected cells; host or cells: HTC (rat hepatoma) cells
T8 sequence (Q99500 whole entry): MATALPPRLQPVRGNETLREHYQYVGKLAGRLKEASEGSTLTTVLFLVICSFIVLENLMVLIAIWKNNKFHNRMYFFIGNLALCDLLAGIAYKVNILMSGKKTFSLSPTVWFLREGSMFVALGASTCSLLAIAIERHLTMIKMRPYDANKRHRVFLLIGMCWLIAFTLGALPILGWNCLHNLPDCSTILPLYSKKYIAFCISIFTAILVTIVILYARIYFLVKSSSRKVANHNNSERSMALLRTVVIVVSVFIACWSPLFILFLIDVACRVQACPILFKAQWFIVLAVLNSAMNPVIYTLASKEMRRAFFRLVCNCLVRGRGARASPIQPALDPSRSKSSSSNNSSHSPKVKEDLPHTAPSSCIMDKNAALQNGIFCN

Adrenergic α2 = conditions: significance criteria ≧50% of max stimulation or inhibition; Table 2
Procedure: (§2) A radioligand binding assay was performed using adrenergic α1 according to the method of Greengrass and Bremner 1979, Eur. J. Pharmacol. 55:323-326. A radioligand binding assay was performed using adrenergic α2 according to the method of Boyajian and Leslie, 1987, J. Pharmacol. Exp. Ther. 241:1092-1098. A redioligand binding assay was performed using adrenergic β according to the method of Feve et al., 1994, Proc. Natl. Acad. Sci. USA 91:5677-5681. A radioligand binding assay was performed using angiotensin AT2 according to the method of Whitebread el al., 1991, Biochem. Biophys. Res. Comm. 181:1365-1371. A radioligand binding assay was performed using calcium channel Type L, dihydropyridine according to the method of Ehlert et al., 1982, Life Sci. 30:2191-2202. A radioligand binding assay was performed using dopamine D2L according to the method of Bunzo et al., 1988, Nature 336:783-787. A radioligand binding assay was performed using endothelin ETA according to the method of Mihara et al., 1994, J. Phrmacol. Exp Ther. 268:1122-1127. A radioligand binding assay was performed using histamine H1 Central according to the method of Hill et al., 1978, J. Neurochem. 31:997-1004. A radioligand binding assay was performed using Muscarinic non-selective, Central according to the method of Luthin and Wolfe, 1984, J. Pharmacol. Exp. Ther. 228:648-655. A radioligand binding assay was performed using serotonin 5-HT1, non-selective according to the method of Middlemiss, 1984, Eur. J. Pharmacol. 101:289-293).

[5] = tested on: Muscarinic non-selective, Central; conditions: significance criteria ≧50% of max stimulation or inhibition; Table 2
Procedure: as §2

[6] = tested on: Calcium Channel Type L, Dihydropyridine; conditions: significance criteria ≧50% of max stimulation or inhibition; Table 2
Procedure: as §2

Dopamine D2L = Dopamine D2L (Homo sapiens, UniProt P14416); conditions: significance criteria ≧50% of max stimulation or inhibition; Table 2
Chain of Dopamine D2L (P14416 whole entry): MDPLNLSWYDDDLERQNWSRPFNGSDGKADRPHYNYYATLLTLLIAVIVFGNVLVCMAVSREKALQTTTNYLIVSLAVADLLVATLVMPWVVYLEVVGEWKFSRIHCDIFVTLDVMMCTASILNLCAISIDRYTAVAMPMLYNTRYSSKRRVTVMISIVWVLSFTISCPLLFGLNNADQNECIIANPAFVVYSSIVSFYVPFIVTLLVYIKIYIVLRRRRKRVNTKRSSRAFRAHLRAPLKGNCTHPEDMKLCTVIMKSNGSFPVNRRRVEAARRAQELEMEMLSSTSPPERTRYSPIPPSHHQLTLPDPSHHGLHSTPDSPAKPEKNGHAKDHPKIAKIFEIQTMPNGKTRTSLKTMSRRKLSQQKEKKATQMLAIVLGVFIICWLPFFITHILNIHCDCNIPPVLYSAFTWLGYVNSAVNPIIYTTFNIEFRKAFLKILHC
Procedure: as §2

[7] = tested on: Adrenergic α1, non-selective; conditions: significance criteria ≧50% of max stimulation or inhibition; Table 2
Procedure: as §2

Adrenergic β = conditions: significance criteria ≧50% of max stimulation or inhibition; Table 2
Procedure: as §2

Angiotensin AT2 = Angiotensin AT2 (Homo sapiens, UniProt P50052); conditions: significance criteria ≧50% of max stimulation or inhibition; Table 2
Chain of Angiotensin AT2 (P50052 whole entry): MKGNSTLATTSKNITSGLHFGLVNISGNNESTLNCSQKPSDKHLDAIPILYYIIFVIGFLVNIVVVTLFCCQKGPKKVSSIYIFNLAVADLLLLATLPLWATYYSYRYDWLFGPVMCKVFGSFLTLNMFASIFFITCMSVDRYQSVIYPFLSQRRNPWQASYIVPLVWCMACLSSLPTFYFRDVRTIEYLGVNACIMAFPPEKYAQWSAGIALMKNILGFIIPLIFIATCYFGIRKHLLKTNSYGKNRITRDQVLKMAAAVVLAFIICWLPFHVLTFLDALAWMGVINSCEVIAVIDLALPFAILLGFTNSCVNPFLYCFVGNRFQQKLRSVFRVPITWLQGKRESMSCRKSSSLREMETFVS
Procedure: as §2

Endothelin ETA = Endothelin ETA (Homo sapiens, UniProt P25101); conditions: significance criteria ≧50% of max stimulation or inhibition; Table 2
Chain of Endothelin ETA (P25101 21-427): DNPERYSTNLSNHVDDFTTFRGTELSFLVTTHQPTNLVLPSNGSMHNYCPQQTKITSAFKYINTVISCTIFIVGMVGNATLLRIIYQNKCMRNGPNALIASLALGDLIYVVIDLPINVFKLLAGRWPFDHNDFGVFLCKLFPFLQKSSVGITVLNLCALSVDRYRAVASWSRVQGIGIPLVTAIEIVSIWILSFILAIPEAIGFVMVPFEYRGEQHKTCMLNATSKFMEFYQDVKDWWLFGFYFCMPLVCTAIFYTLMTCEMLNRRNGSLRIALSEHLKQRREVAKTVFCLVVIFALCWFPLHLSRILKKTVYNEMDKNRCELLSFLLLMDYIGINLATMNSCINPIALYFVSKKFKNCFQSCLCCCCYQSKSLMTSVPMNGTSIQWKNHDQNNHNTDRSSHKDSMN
Procedure: as §2

Histamine H1, Central = Histamine H1, Central (Cavia porcellus, UniProt P31389); conditions: significance criteria ≧50% of max stimulation or inhibition; Table 2
Chain of Histamine H1, Central (P31389 whole entry): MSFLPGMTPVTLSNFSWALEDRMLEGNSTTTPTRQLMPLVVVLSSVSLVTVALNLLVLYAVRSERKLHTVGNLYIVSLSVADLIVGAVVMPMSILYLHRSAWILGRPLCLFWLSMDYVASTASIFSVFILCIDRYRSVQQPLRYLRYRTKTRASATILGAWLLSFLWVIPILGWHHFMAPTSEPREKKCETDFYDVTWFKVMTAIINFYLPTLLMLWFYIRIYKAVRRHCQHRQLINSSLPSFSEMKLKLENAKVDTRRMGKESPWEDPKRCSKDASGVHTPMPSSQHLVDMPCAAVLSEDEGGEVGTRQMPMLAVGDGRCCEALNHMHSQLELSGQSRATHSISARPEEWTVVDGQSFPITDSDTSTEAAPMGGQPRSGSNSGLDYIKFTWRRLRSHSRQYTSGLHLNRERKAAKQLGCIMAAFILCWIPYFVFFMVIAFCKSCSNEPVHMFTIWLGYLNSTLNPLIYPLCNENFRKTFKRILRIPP
Procedure: as §2

[8] = tested on: Serotonin 5-HT1, non-selective; conditions: significance criteria ≧50% of max stimulation or inhibition; Table 2
Procedure: as §2

SMILES	reversal of LPA inhibition of forskolin-stimulated cAMP production [1]	inhibition of LPA-stimulated calcium mobilization [2]	inhibition of LPA-stimulated calcium mobilization [3]	activity at various targets tested, including other GPCRs, ion channels, and enzymes [4]	inhibition of the Edg 2 receptor (Edg-2 receptor)	pIC50 (Edg-2 receptor)	Fold Selective (Edg-2 receptor)	inhibition of S1P-stimulated calcium increases, Edg 6 (Edg 6 receptor)	pIC50 (Edg 6 receptor)	inhibition of LPA-stimulated calcium increases, Edg 7 (Edg-7 receptor)	inhibition of LPA-stimulated calcium increases, Edg 4 (Edg-4 receptor)	inhibition of S1P-stimulated calcium increases, Edg 1 (Edg 1 receptor)	inhibition of S1P-stimulated calcium increases, Edg 5 (Edg 5 receptor)	inhibition of S1P-stimulated calcium increases, Edg 8 (Edg 8 receptor)	inhibition of S1P-stimulated calcium increases, Edg 3 (Edg 3 receptor)	further results
CCOc1ccccc1N1C(=O)CC(N(O)c2ccc(F)cc2)C1=O (stereo not shown) [Compound 111, 1-(2-Ethoxyphenyl)-3-[(4-fluorophenyl)hydroxylamino]pyrrolidine-2,5-dione]	–	–	–	–	–	–	–	–	–	–	–	–	–	–	–	melting point: 123 to 124 °C
O=C(CC(=O)C(F)(F)F)Nc1cc(-c2ccccc2)n[nH]1 [Compound 201, 4,4,4-trifluoro-3-oxo-N-(5-phenyl-2H-pyrazol-3-yl)butyramide, reference compound]	little to no effect	little to no effect	not	–	–	–	–	–	–	–	–	–	–	–	–	–
CCn1nc(C)c(-c2ccccc2O)c1-c1ccccc1 [Compound 103, 2(1-Ethyl-3-methyl-5-phenyl-1H-pyrazol-4-yl)phenol]	reverses the inhibitory effects of LPA	almost completely inhibited	inhibition	did not demonstrate any significant activity	specifically inhibited	6.19	>31.3	did not inhibit	< 4.70	did not inhibit	did not inhibit	did not inhibit	did not inhibit	did not inhibit	did not inhibit	–
CCOc1ccccc1N1C(=O)CC(N(O)c2ccccc2)C1=O (stereo not shown) [Compound 101, 1-(2-Ethoxyphenyl)-3-(hydroxyphenylamine)-pyrrolidine-2,5-dione]	–	–	inhibition	did not demonstrate any significant activity	specifically inhibit	5.85	>14.3	did not inhibit	< 4.70	did not inhibit	did not inhibit	did not inhibit	did not inhibit	did not inhibit	did not inhibit	activity in radioligand binding assay, Adrenergic Alpha 2, non-selective (Adrenergic α2): no significant activity; activity in radioligand binding assay, Muscarinic, non-selective, central [5]: no significant activity; activity in radioligand binding assay, Calcium Channels Type L, DHP [6]: no significant activity; activity in radioligand binding assay, Dopamine D2L (Dopamine D2L): no significant activity; activity in radioligand binding assay, Adrenergic Alpha 1, non-selective [7]: no significant activity; activity in radioligand binding assay, Adrenergic Beta, non-selective (Adrenergic β): no significant activity; activity in radioligand binding assay, Angiotensin AT2 (Angiotensin AT2): no significant activity; activity in radioligand binding assay, Endothelin ETA (Endothelin ETA): no significant activity; activity in radioligand binding assay, H1 central (Histamine H1, Central): no significant activity; activity in radioligand binding assay, Serotonin 5HT1 non-selective [8]: no significant activity; inhibition of LPA-stimulated calcium mobilization, dose response to LPA ([3]; varying concentrations of compound (0-10 μM), FIG. 5): inhibition
